Experiment: Human HepG2 cell viability assay in 384 well format
Assay type: toxicity, cell-based
Set-up: dose 125 nL, time 70.5 hour; cytotoxicity at 70.5 h: concentration not given beside the values
Conditions: HepG2 cells, read-out: Inhibition

| Structure (SMILES) | cytotoxicity at 70.5 h [%] |
| --- | --- |
| NC(=O)CN(Cc1ccc(Br)cc1)C(=O)c1ccncc1 | -2.62 |
| NC(=O)CN(Cc1ccc(Br)cc1)C(=O)c1cnccn1 | -5.94 |
| NC(=O)CN(Cc1ccc(Br)cc1)C(=O)c1ccccn1 | -4.46 |
| CC(C)c1nn(C)c(N(C)C)c1CNC1CCCCNC1=O (stereo not given) | -4.04 |
| Cc1nn(C)c(N2CCOCC2)c1CNC1CCCCNC1=O (stereo not given) | -5.43 |
| Cc1nn(C)c(Oc2ccccc2)c1CNC1CCCCNC1=O (stereo not given) | -6.4 |
| Cn1cc(C2CCCN2C(=O)CCn2c(=O)oc3ccccc32)cn1 (stereo not given) | -2.42 |
| Cc1cc(N(Cc2ccon2)S(C)(=O)=O)ccc1Br | 17.3 |
| O=C(c1cc(-n2cccn2)ccn1)N(CC1CCC1)CC(F)(F)F | -3.45 |
| Cn1ccc(C(=O)NCCOc2ccc3c(c2)CCC3)cc1=O | -3.77 |
| Cc1cc(CNC2(c3ccccc3)CCCCC2)no1 | -4.77 |
| O=C(c1cc(-n2cccn2)ccn1)N(CC(F)(F)F)C1CCCC1 | -2.14 |
| CC(O)CN1CCC(CN(C)CC(=O)NC(C)C)CC1 (stereo not given) | -1.64 |
| CC(O)CN1CCC(CN(C)CCC(=O)NC2CCCCC2)CC1 (stereo not given) | 14.6 |
| Clc1ccc(CN2CCc3c(ncn3C3CC3)C2)c2ncccc12 | -2.64 |
| Cc1cnn(CCNCc2c(C)nn(CCO)c2C)c1 | 2.83 |
| CC(C)Cc1ncc(CNc2cnccc2CO)s1 | -1.94 |
| Cc1cc(C)n(Cc2cccc(C(=O)N(CCC#N)CCC#N)c2)n1 | -0.535 |
| COC(=O)CCCN(C)C(=O)c1cc(F)cc2[nH]cnc12 | 23.5 |
| COC(=O)NC1(C(=O)NCc2ccc(-c3ccn[nH]3)cc2)CCCC1 | -0.909 |

| Structure (SMILES) | cytotoxicity at 70.5 h [%] |
| --- | --- |
| CCNC(=O)NC1CN(CC(=O)NCc2ccccc2C)C[C@@H]1OC (stereo not given in full) | 1.44 |
| COc1ccc(S(=O)(=O)N2CC(CC(=O)O)c3ccccc32)cc1 (stereo not given) | -0.927 |
| O=C(c1[nH]nc2c1CCCC2)N1CCC(OCCN2CCCCC2)C1 (stereo not given) | -2.83 |
| CCNC(=O)NC1CN(Cc2ccccc2N(C)C)C[C@@H]1OC (stereo not given in full) | 5.63 |
| CCC(C)(CC(=O)O)NC(=O)Cc1ccccc1F (stereo not given) | 26.6 |
| CSC1(CNC(=O)NC(C)c2ccc(F)c(F)c2)CCOCC1 (stereo not given) | -1.76 |
| CN(C)C(=O)Cc1ccccc1NCc1cccc(F)c1F | 0.378 |
| CCN(CCC(=O)OC)C(=O)c1cccc(Cn2nc(C)cc2C)c1 | 4.14 |
| COc1ccc(C)c2c1N(C(=O)c1cnc(C)s1)CCC2 | -1.73 |
| O=S(=O)(CCSc1nccn1C1CC1)c1ccccc1 | -5.9 |
| CSC1(CNC(=O)NC(C)Cc2cccc(F)c2)CCOCC1 (stereo not given) | 0.72 |
| Cc1csc(CNc2cnn(CC(C)C)c2)n1 | 3.86 |
| Cc1c(C(=O)NS(=O)(=O)c2ccc(F)cc2)cnn1CC(C)C | 20.5 |
| CC(C)(C)OC(=O)N1CCCN1C(=O)c1cccc(F)c1F | -5.84 |
| CCC(C)(CC(=O)O)NC(=O)Cc1ccccc1Br (stereo not given) | -4.24 |
| CCN(Cc1nc(C2CC2)no1)Cc1ccc(C#N)cc1F | -3.69 |
| CC(NC1CCN(CCS(C)(=O)=O)CC1)c1cnn(C(C)C)c1 (stereo not given) | -10.2 |
| COCc1noc(Cc2cc(Cl)c3c(c2)OCCCO3)n1 | -4.84 |
| COCC(C)NC(=O)CN1CCC(CO)CC1 (stereo not given) | -3.9 |
| CC(Cn1cccn1)NC(=O)N(C)Cc1ccc(C(N)=O)cc1 (stereo not given) | 37.9 |

| Structure (SMILES) | cytotoxicity at 70.5 h [%] |
| --- | --- |
| Cn1cc(NC(=O)c2cccc3cccnc23)ccc1=O | -18.3 |
| O=C1CCC(C(=O)Nc2ccc(=O)n(Cc3ccccc3Cl)c2)N1 (stereo not given) | -4.13 |
| O=C1NCC(C(=O)Nc2ccc(=O)n(Cc3ccccc3Cl)c2)N1 (stereo not given) | -21.3 |
| COc1ccc2c(OCC(=O)NCC(F)(F)F)ccnc2c1 | -15.8 |
| CN(C(=O)Nc1nncs1)C1CCN(c2ccccc2Cl)C1=O (stereo not given) | -21.1 |
| COc1cc(F)c(S(=O)(=O)Nc2cnc(O)cc2C)cc1OC | -11.9 |
| Cc1cc(O)ncc1NS(=O)(=O)c1cccc(F)c1F | -19.8 |
| CCC1C(=O)NCCN1c1nccc(C)n1 (stereo not given) | 45.2 |
| c1cnn(CCNCc2ccc(N3CCCCC3)cc2)c1 | -13.6 |
| CC(C)c1nsc(N2CCSCC2)n1 | -22.2 |
| CC(=O)N(Cc1noc(C)n1)C1CCN(CC2(O)CCCCC2)C1 (stereo not given) | -27.3 |
| O=C(Nc1cccc(OCc2ccc(F)cc2)c1)C1COCCO1 (stereo not given) | -4.75 |
| Cc1nn(CCO)c(C)c1CNC1CCc2c(Cl)cccc21 (stereo not given) | 10.2 |
| CCN(CC)CC(=O)NCCc1csc(N2CCCC2)n1 | -3.59 |
| Cc1ccc(C2COCCN2C(=O)c2ccc(CN(C)C)cc2)o1 (stereo not given) | -6.21 |
| CCN(CC1CN(Cc2ncc(C)o2)CCO1)c1cccnn1 (stereo not given) | -2.43 |
| COc1cc(C(=O)N(CCC#N)Cc2ccccn2)cc(OC)c1C | -6.63 |
| O=C(c1cnn(-c2ccccc2F)c1)N1CCN(CCO)CC1 | -3.38 |
| CC(C)c1cccc(CSc2nnc(CN3CCCC3=O)o2)n1 | -8 |
| O=C(CN1CCC[C@H]1C(=O)O)NCCOc1cccc(Cl)c1 | -1.34 |

Source: ChEMBL document CHEMBL3507680, “University of Dundee, Gates Library screen for HepG2 cell viability”
